Results: paper PMC5934630 (2018)

Key:
[1] = tested on: MA-L (DNA, aptamer) CAGAACTTACGACTCAGGCATTTTGCCGGGTAACGAAGTTACTGTCGTAAG; assay: ITC; conditions: Na+ 20 mM, Mg2+ 0.5 mM
[2] = tested on: MA (DNA, aptamer) CTTACGACTCAGGCATTTTGCCGGGTAACGAAGTTACTGTCGTAAG; assay: ITC; conditions: Na+ 20 mM, Mg2+ 0.5 mM

**Q.** What does the source list for `CCCC(C(=O)c1ccc2c(c1)OCO2)N1CCCC1` (centres unmarked)?
**A.** KD [1]: 6.2 µM; KD [2]: 6.1 ± 0.2 µM
